Results on nine compounds are retold here after US10501428B2, “Thymoquinone derivatives for treatment of cancer” (United Arab Emirates University, priority 2014, dated 2019).

Molecules are shown by their SMILES. Where two headings read alike, the source gives them in different places.

In general, IC50 refers to the midpoint of a concentration-inhibition curve. One may read the melting point as the temperature of the solid-liquid transition.

For series [1], the system named is G-quadruplex DNA. Put plainly: Fluorescence titration of TQs with G-quadruplex DNA (modified Scatchard). Format: binding, human. The following applies: non-linear regression, modified Scatchard equation. Here is the method:
(§1) A 2 ml of the stock single stranded DNA; 5′-[…]-3′ (SEQ ID NO: 1) was gently heated up to 95° C., incubated for 10 minutes and then left to cool to room temperature. Resultant solution was kept in fridge at 4° C. overnight.
To 3 ml of 5×10^−5 M of each of compounds TQ1-8 in Tris-KCl-buffer, pH 7.4, successive portions of G-quadruplex DNA (1.44×10^−4 M) were added. After each addition, the TQ solution was stirred for 20 seconds, incubated for 3 min and its emission was scanned in the range 300-600 nm using excitation Amax of 280 nm and slit width of 10.00 nm. Titration stopped when no change in fluorescence intensity was observed.
Scatchard plots were used to determine the binding affinity of the thymoquinone derivative compounds to G-quadruplex based on fluorescence titration, keeping the compounds concentration constant and varying DNA amounts.
Dependant binding sites may have synergistic (the first bound ligand encourage the next binding one) or antagonistic (the first bound ligand suppress the next binding one) effects on each other, a phenomenon known as the neighbor exclusion effect. Non-linear regression based on a modified Scatchard equation gave the binding constants and number of binding sites shown in Table 3. Compound TQ8 has shown the highest binding constant (1.33×10^7 M^−1) and compound TQ5 has shown the lowest binding constant (7.76×10^4 M^−1)

In series [2] the test system is Human lung cancer cells A549. Put plainly: CellTiter-Glo cell viability assay, A549 lung cancer cells. The series is classed as cell-based. Particulars: for cytotoxicity at 100 µM / IC50: Homo sapiens; for cytotoxicity at 100 µM: A549, 100 μM, relative to control (DMSO), read-out: decrease in cell viability; for IC50: A549, 24 hours. Here is the method: (§2) Human lung cancer cells A549, human breast cancer cells MDA-MB-231 and colorectal cancer cells HT29, were used to test the antiproliferative activity of the synthesised compounds. Human lung cancer cells A549 were maintained in RPMI 1640 medium (Hyclone Laboratories, USA), human breast cancer cells MDA-MB-231 and colorectal cancer cells HT29 were maintained in DMEM medium (Hyclone Laboratories, USA). All media was supplemented with antibiotics (penicillin 50 U/ml; streptomycin 50 ug/ml) (Hyclone Laboratories, USA).
(§3) Cells were seeded at a density of 5,000 cells/well into 96-well plates. After 24 h, cells were treated for 24 and 48 h with different concentrations of compounds TQ1-5 and 8 (5-100 μM), in triplicate. Control cultures were treated with 0.1% DMSO. The effect of the compounds TQ1-8 on cell viability was determined using the CellTiter-Glo Luminescent Cell Viability assay (Promega Corporation, Madison, USA), based on quantification of ATP, which signals the presence of metabolically active cells. The luminescent signal was measured using the GLOMAX Luminometer system. Data were presented as proportional viability (%) by comparing the treated group with the untreated cells, the viability of which is assumed to be 100%.
A general note: ATP-based viability assays read luminescence as a measure of living cells.

Series [3] relates to G-quadruplex DNA. Put plainly: Melting temperature curves of G-quadruplex and TQ complexes by CD. The series is classed as binding, human. Particulars: for Tm: equimolar G-quadruplex and TQ 3.93×10^−6 M, Tris-KCl buffer pH 7.4, CD at 293 nm; for Δ Tm: versus G-quadruplex DNA alone (70.0 ° C.). Here is the method: as §1
Melting temperature curves for G-quadruplex and their TQs adducts were constructed using CD spectral measurements.
A 1 ml telomeric G-quadruplex (3.93×10^−6 M) in Tris-KCl-buffer pH7.4, was heated in 1-5° C. increments in the range 25-95° C. using 5 minutes incubation time intervals. CD spectra were recorded in the range 200-400 nm using 50 nm/min, 1 nm band width and 3 accumulations at each point. CD spectra were baseline corrected against blank solution and CD intensities at 293 nm were plotted versus temperature.
Similarly G-quadruplex-TQ1-8 1 mL complex solutions that were 3.93×10^−6 M of G-quadruplex and 3.93×10−6 M of TQs were heated up to 95° C. and measured. The solutions were prepared by mixing equi-molar amounts of G-quadruplex (27.3 μL, 1.44×10^−4 M) with TQ compounds 1-8 (39.30 μL, 1×10^−4 M) in 1 mL KCl-buffer, pH 7.4. CD spectra were baseline corrected and CD intensities at 293 nm were plotted versus temperature.

Series [4] deals with colorectal cancer cells HT29. Put plainly: CellTiter-Glo cell viability assay, HT29 colorectal cancer cells. The series is classed as cell-based. Particulars: Homo sapiens, HT-29; for cytotoxicity at 100 µM: HT29, 100 μM, read-out: loss in cell viability. Here is the method:
as §2, §3

Series [5] relates to human breast cancer cells MDA-MB-231. Put plainly: CellTiter-Glo cell viability assay, MDA-MB-231 breast cancer cells. The following applies: for cytotoxicity at 100 µM: MDA-MB-231, 100 μM, read-out: loss in cell viability. The series is classed as cell-based. Here is the method:
as §2, §3

Series [6] has as its system Human lung cancer cells A549. Particulars: value has been reported, read-out: IC50 A549 (parent TQ, reported); cited from earlier work.

With `CC1=C(NCCN2CCOCC2)C(=O)C(C(C)C)=CC1=O` [TQ1, 5-Isopropyl-2-methyl-3-((2-morpholinoethyl)amino)-1,4-benzoquinone], the melting point fell in the range of 92 to 95 °C. For the same compound, in the series on G-quadruplex DNA [1], the “binding constant K” value worked out at 113000 M⁻¹. The cytotoxicity at 100 µM in series [2] (24 hours) was 15%. Further, the cytotoxicity at 100 µM in series [2] (48 hours exposure) is 33%. Further, the concentration for half-maximal inhibition (IC50) in series [2] stood at 74.3 µM. Moreover, in the series with G-quadruplex DNA [3], the Tm was 79.0 °C and the “Δ Tm” value was found to be 9.0 °C.
For the compound `CC1=C(NCc2ccc(C(F)(F)F)cc2)C(=O)C(C(C)C)=CC1=O` [TQ2, 5-Isopropyl-2-methyl-3-(4-trifluoromethylbenzylamino)-1,4-benzoquinone], the melting point is 110.5 to 112 °C. In the series with G-quadruplex DNA [1], the “binding constant K” value came out at 567000 M⁻¹. The cytotoxicity at 100 µM in series [2] (24 hours) worked out at 32%. Also, in series [2] (48 hours exposure), the cytotoxicity at 100 µM was determined as 57%. This compound also came in with an IC50 in series [2] of 84.3 µM. For the same compound, in the series with G-quadruplex DNA [3], the Tm was found to be 76.0 °C and the “Δ Tm” value was 6.0 °C.
Consider `CC1=C(NCc2ccc(F)cc2)C(=O)C(C(C)C)=CC1=O` [TQ3, 5-Isopropyl-2-methyl-3-(4-fluorobenzylamino)-1,4-benzoquinone], for which the melting point is 80 to 82.5 °C. In addition, the “binding constant K” value in the series on G-quadruplex DNA [1] is 330000 M⁻¹. Moreover, the cytotoxicity at 100 µM in series [2] (24 hours) turned out to be 29%. Further, the cytotoxicity at 100 µM in series [2] (48 hours exposure) amounted to 64%. Further, in series [2], the midpoint of inhibition, the IC50, lay at 83.2 µM. For the same compound, in the series on G-quadruplex DNA [3], the Tm worked out at 76.0 °C and the “Δ Tm” value stood at 6.0 °C.
The compound `CC1=C(NCc2ccccc2)C(=O)C(C(C)C)=CC1=O` [TQ4, 5-Isopropyl-2-methyl-3-(benzylamino)-1,4-benzoquinone] gave a melting point of 83 to 84.5 °C. For the same compound, the “binding constant K” value with G-quadruplex DNA [1] was determined as 95200 M⁻¹. In addition, the cytotoxicity at 100 µM in series [2] (24 hours) came out at 17%. In series [2] (48 hours exposure), the cytotoxicity at 100 µM came to 58%. The compound also showed a half-inhibitory concentration (IC50) in series [2] of 88.7 µM. Also, in the series on G-quadruplex DNA [3], the Tm came to 76.0 °C and the “Δ Tm” value is 6.0 °C.
As for `CC1=C(NCc2cc(C(F)(F)F)cc(C(F)(F)F)c2)C(=O)C(C(C)C)=CC1=O` [TQ5, 5-Isopropyl-2-methyl-3-(3,5-ditrifluoromethylbenzylamino)-1,4-benzoquinone], the melting point was 111 to 114 °C. Further, in the series on G-quadruplex DNA [1], the “binding constant K” value came to 77600 M⁻¹. In addition, the cytotoxicity at 100 µM in series [2] (24 hours) was found to be 33%. Further, in series [2] (48 hours exposure), the cytotoxicity at 100 µM amounted to 48%. Further, the 50% inhibitory concentration (IC50) in series [2] is 105 µM. Also, in the series on G-quadruplex DNA [3], the Tm amounted to 77.0 °C and the “Δ Tm” value was 7.0 °C.
In the case of `CC1=C(NCCO)C(=O)C(C(C)C)=CC1=O` [TQ6, 5-isopropyl-2-methyl-3-(2-hydroxyethylamino)-1,4-benzoquinone], in the series with G-quadruplex DNA [1], the “binding constant K” value is 1.49e+06 M⁻¹. Further, in the series on G-quadruplex DNA [3], the Tm is 80.0 °C and the “Δ Tm” value was found to be 10.0 °C.
For `COc1ccc(CNC2=C(C)C(=O)C=C(C(C)C)C2=O)cc1OC` [TQ7, 5-isopropyl-2-methyl-3-(3,4-dimethoxylbenzylamino)-1,4-benzoquinone], in that order: 1.17e+06 M⁻¹, 77.0 °C and 7.7 °C.
As for `CC1=C(N)C(=O)C(C(C)C)=CC1=O` [TQ8, 3-amino-5-isopropyl-2-methyl-1,4-benzoquinone], the melting point lay in the range of 68 to 72 °C. In addition, the cytotoxicity at 100 µM in series [4] (24 hours exposure) is 97%. In series [4] (48 hours exposure), the cytotoxicity at 100 µM turned out to be 99%. For the same compound, in series [4] (HT29, 24 hours), the IC50 was found to be 55.8 µM. In series [5] (24 hours exposure), the cytotoxicity at 100 µM turned out to be 83%. Also, the cytotoxicity at 100 µM in series [5] (48 hours exposure) worked out at 98%. In series [5] (MDA-MB-231, 24 hours), this compound came in with an IC50 of 45.1 µM. Further, in series [2] (A549 IC50 comparison), the “potency compared to the parent TQ molecule” value is on record as at least 200%. The cytotoxicity at 100 µM in series [2] (24 hours) stood at 99%. Besides, the cytotoxicity at 100 µM in series [2] (48 hours exposure) came to 100%. Besides, in series [2], half-maximal inhibition (IC50) was put at 35 µM.
With `CC1=CC(=O)C(C(C)C)=CC1=O` [TQ, 2-isopropyl-5-methyl-1,1,4-benzoqinone], the IC50 in series [6] is 78.3 µM.
